Assay results from the supplement of paper PMC10307832.

Columns and labels:
Assay in all cases: relative viability (nuclei count vs DMSO), 5 days (fraction); higher = more cells survive
[1] = compound: C/C(=N\NC(=S)N1CCC1)/C2=CC=CC=N2 + CC1(C)CCC(c2ccc(Cl)cc2)=C(CN2CCN(c3ccc(C(=O)NS(=O)(=O)c4ccc(N[C@H](CCN5CCOCC5)CSc5ccccc5)c(S(=O)(=O)C(F)(F)F)c4)cc3)CC2)C1 [Navitoclax] (partner 0.5 µM)
In short: (§1)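 Lung cancer cell lines were pin-tool dosed in 1536-well plates on the day after seeding, with either a lone drug or a fixed anchor-drug dose plus five library-drug doses (not always all listed) in √10 steps. Nuclei were counted on 4× images after 5 days. Relative viability is the ratio of treated-well to vehicle-well nuclei counts, with each value a median of duplicate plates.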

[2] = compound: C/C(=N\NC(=S)N1CCC1)/C2=CC=CC=N2 + CCNC(=O)c1noc(-c2cc(C(C)C)c(O)cc2O)c1-c1ccc(CN2CCOCC2)cc1 [Luminespib] (partner 0.01 µM)
In short: as §1

[3] = compound: C/C(=N\NC(=S)N1CCC1)/C2=CC=CC=N2 + COc1cc2c(Oc3ccc(NC(=O)C4(C(=O)Nc5ccc(F)cc5)CC4)cc3F)ccnc2cc1OCCCN1CCOCC1 [Foretinib] (partner 0.25 µM)
In short: as §1

[4] = compound: C/C(=N\NC(=S)N1CCC1)/C2=CC=CC=N2 + C[C@]1(O)C[C@@H](c2nc(-c3ccc4ccc(-c5ccccc5)nc4c3)c3c(N)nccn32)C1 [Linsitinib] (partner 1 µM)
In short: as §1

Cell Line	relative viability ([1]; first compound 0.05 µM)	relative viability ([1]; first compound 0.1581 µM)	relative viability ([1]; first compound 0.5 µM)	relative viability ([1]; first compound 1.581 µM)	relative viability ([1]; first compound 5 µM)	relative viability ([2]; first compound 0.05 µM)	relative viability ([2]; first compound 0.1581 µM)	relative viability ([2]; first compound 0.5 µM)	relative viability ([2]; first compound 1.581 µM)	relative viability ([2]; first compound 5 µM)	relative viability ([3]; first compound 0.05 µM)	relative viability ([3]; first compound 0.1581 µM)	relative viability ([3]; first compound 0.5 µM)	relative viability ([3]; first compound 1.581 µM)	relative viability ([3]; first compound 5 µM)	relative viability ([4]; first compound 0.05 µM)	relative viability ([4]; first compound 0.1581 µM)	relative viability ([4]; first compound 0.5 µM)	relative viability ([4]; first compound 1.581 µM)	relative viability ([4]; first compound 5 µM)
NCI-H647	0.133	0.129	0.117	0.123	0.116	0.0621	0.051	0.0851	0.0853	0.0804	0.128	0.0812	0.172	0.132	0.105	0.148	0.103	0.159	0.0971	0.0901
NCI-H727	0.109	0.0812	0.098	0.189	0.257	0.249	0.337	0.294	0.346	0.34	0.225	0.231	0.227	0.227	0.22	0.203	0.115	0.213	0.222	0.238
NCI-H838	0.259	0.258	0.229	0.192	0.225	0.111	0.15	0.132	0.125	0.14	0.259	0.255	0.216	0.217	0.18	0.241	0.224	0.198	0.183	0.143
NCI-H1355	0.181	0.718	0.129	0.143	0.165	0.176	0.179	0.192	0.167	0.173	0.282	0.378	0.22	0.197	0.162	0.259	0.632	0.193	0.182	0.181
NCI-H1395	0.4	0.346	0.365	0.338	0.352	0.305	0.338	0.332	0.349	0.337	0.381	0.368	0.369	0.351	0.349	0.374	0.336	0.307	0.353	0.36
NCI-H1437	0.166	0.142	0.152	0.109	0.0981	0.238	0.215	0.216	0.18	0.14	0.242	0.261	0.229	0.192	0.162	0.114	0.122	0.103	0.0866	0.0787
NCI-H1651	0.0866	0.0844	0.0783	0.0702	0.081	0.13	0.157	0.127	0.0971	0.138	0.136	0.142	0.127	0.0965	0.107	0.131	0.126	0.122	0.0894	0.0655
NCI-H1666	0.185	0.248	0.208	0.248	0.262	0.386	0.391	0.347	0.311	0.287	0.439	0.365	0.345	0.348	0.331	0.213	0.244	0.231	0.22	0.231
